Data: PubChem BioAssay AID1845211 (Molecular Pharmacology Branch, DTP, NCI, 2023)

Test system: NCI-H322M multicellular tumor spheroids, viability (% test/control)
Experiment: Anticancer human tumor NCI-H322M cell line growth inhibition;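 as to viability, T/C: spheroids exposed to compound for seven days before readout; 100% = DMSO vehicle control wells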
Details: for IC50: curve of first compound; for viability, T/C: stronger effect = lower value
Excerpt: Multicellular complex tumor spheroid response to DNA repair inhibitors in combination with DNA-damaging drugs
This study explores the anticancer activities of DNA-damaging drugs and inhibitors of DNA damage repair, both as single agents and in combinations. Complex tumor spheroids comprised of malignant cells, endothelial cells and mesenchymal stem cells served as an in vitro model for human solid tumors. This model system incorporates physiologically relevant features and patient-derived or established malignant cell lines with clinically relevant genetic alterations from many tumor types. Twenty-six patient-derived or established malignant cell lines were evaluated representing sarcoma, melanoma, small cell lung cancer (SCLC), non-small cell lung cancer (NSCLC), as well as bladder, ovarian and pancreatic cancers. The concentration ranges selected for each drug and investigational agent were based upon clinically achievable concentrations if the clinical Cmax of the agent was known.
Compounds. The drugs and compounds olaparib (NSC753686), talazoparib (NSC767125), berzosertib (NSC777718), elimusertib (NSC800525), nedisertib (NSC802822), VX-984 (NSC792969), AZD-1390 (NSC803789), temozolomide (NSC362856), topotecan (NSC609699), trabectedin (NSC813783), staurosporine (NSC755774), and gemcitabine (NSC613327) were obtained from the National Cancer Institute (NCI) Developmental Therapeutics Program Chemical Repository. The FDA-approved anticancer drug set is available from the Developmental Therapeutics Program at https://dtp.cancer.gov/organization/dscb/obtaining/available_plates.htm. […] The stock solutions were prepared in dimethyl sulfoxide (DMSO, Sigma-Aldrich, St. Louis, MO, cat. D2650) at 400-fold the tested concentration and stored at -70 degrees C. Prior to their use, the stock solutions were diluted in fresh medium and the final DMSO concentration in the assay was 0.25% (v/v). All drugs and investigational agents were tested over a range starting from a high concentration at or near the clinical Cmax and decreasing in half-log increments. If the clinical Cmax for an agent had not been determined, the highest concentration tested was 10 microM.
Cell Lines. The patient-derived cancer cell (PDC) lines: 156681-154-R-J1-PDC, 283228-195-R-J1-PDC, 287954-098-R-J1-PDC, 292921-168-R-J2-PDC, 349418-098-R-PDC, 425362-245-T-J1-PDC, 556581-035-R-J1-PDC, and BL0293-F563-PDC were received from the NCI Patient-Derived Models Repository (PDMR, https://pdmr.cancer.gov). The established cell lines HS-SY-2 (RRID:CVCL_8719), MPNST, and SYO-1 (RRID:CVCL_7146) were obtained from the Sloan Kettering Institute. The alveolar soft parts sarcoma cell line ASPS-1 (RRID:CVCL_S738) was established at the NCI and grown from internal seed stocks. The following established cell lines were purchased from the American Type Culture Collection (ATCC, Manassas, VA): G-401 (ATCC, cat. CRL-1441, RRID:CVCL_0270), SW982 (ATCC, cat. HTB-93, RRID:CVCL_1734), VA-ES-BJ (ATCC, cat. CRL-2138, RRID:CVCL_1785), NCI-H719 (ATCC, cat. CRL-5837, RRID:CVCL_1582), NCI-H196 (ATCC, cat. CRL-5823, RRID:CVCL_1509), NCI-H841 (ATCC, cat. CRL-5845, RRID:CVCL_1595), NCI-H1618 (ATCC, cat. CRL-5879, RRID:CVCL_1480), NCI-H1876 (ATCC, cat. CRL-5902, RRID:CVCL_1503), DMS 114 (ATCC, cat. CRL-2066; RRID:CVCL_1174), NCI-H211 (ATCC, cat. CRL-5824; RRID:CVCL_1529), and SW 1271 (ATCC, cat. CRL-2177, RRID:CVCL_1716). The small cell lung cancer cell line COR-L88 was purchased from Sigma-Aldrich (cat. 92031917-1VL, RRID:CVCL_1141). The non-small cell lung cancer cell lines NCI-H226 (RRID:CVCL_1544) and NCI-H322M (RRID:CVCL_1557) were established at the NCI and grown from internal seed stocks. Pooled donor human umbilical vein endothelial cells (HUVEC, Lonza, cat. CC-2519) and human mesenchymal stem cells (hMSC, Lonza, cat. PT-2501) were purchased from Lonza (Walkersville, MD).
Cell Culture. All cells were maintained in an incubator at 37 degrees C and 5% CO2 with 95% humidity. […]

[1] = second compound 0.003 µM, first compound 0.0316 µM
[2] = second compound 0.003 µM, first compound 0.1 µM
[3] = second compound 0.003 µM, first compound 0.316 µM
[4] = second compound 0.003 µM, first compound 1 µM
[5] = second compound 0.003 µM, first compound 3.16 µM
[6] = second compound 0.003 µM, first compound 10 µM
[7] = second compound 0.00949 µM, first compound 0.0316 µM
[8] = second compound 0.00949 µM, first compound 0.1 µM
[9] = second compound 0.00949 µM, first compound 0.316 µM
[10] = second compound 0.00949 µM, first compound 1 µM
[11] = second compound 0.00949 µM, first compound 3.16 µM
[12] = second compound 0.00949 µM, first compound 10 µM
[13] = second compound 0.03 µM, first compound 0.0316 µM
[14] = second compound 0.03 µM, first compound 0.1 µM
[15] = second compound 0.03 µM, first compound 0.316 µM
[16] = second compound 0.03 µM, first compound 1 µM
[17] = second compound 0.03 µM, first compound 3.16 µM
[18] = second compound 0.03 µM, first compound 10 µM
[19] = second compound 0.0949 µM, first compound 0.0316 µM
[20] = second compound 0.0949 µM, first compound 0.1 µM
[21] = second compound 0.0949 µM, first compound 0.316 µM
[22] = second compound 0.0949 µM, first compound 1 µM
[23] = second compound 0.0949 µM, first compound 3.16 µM
[24] = second compound 0.0949 µM, first compound 10 µM
[25] = second compound 0.3 µM, first compound 0.0316 µM
[26] = second compound 0.3 µM, first compound 0.1 µM
[27] = second compound 0.3 µM, first compound 0.316 µM
[28] = second compound 0.3 µM, first compound 1 µM
[29] = second compound 0.3 µM, first compound 3.16 µM
[30] = second compound 0.3 µM, first compound 10 µM

CC1COCCN1c1cc(-c2ccnn2C)c2ccnc(-c3ccn[nH]3)c2n1 (stereo not given) + CC[C@@]1(O)C(=O)OCc2c1cc1n(c2=O)Cc2cc3c(CN(C)C)c(O)ccc3nc2-1
IC50 (second compound 0.003 µM): < 0.0316 µM | IC50 (second compound 0.00949 µM): < 0.0316 µM | IC50 (second compound 0.03 µM): < 0.0316 µM | IC50 (second compound 0.0949 µM): < 0.0316 µM | IC50 (second compound 0.3 µM): < 0.0316 µM | viability, T/C [1]: 55.8% | viability, T/C [2]: 40.6% | viability, T/C [3]: 35% | viability, T/C [4]: 32.3% | viability, T/C [5]: 30.8% | viability, T/C [6]: 38.3% | viability, T/C [7]: 51.6% | viability, T/C [8]: 39.1% | viability, T/C [9]: 35.5% | viability, T/C [10]: 32.6% | viability, T/C [11]: 32.9% | viability, T/C [12]: 34.5% | viability, T/C [13]: 43.8% | viability, T/C [14]: 32.6% | viability, T/C [15]: 30.8% | viability, T/C [16]: 30.4% | viability, T/C [17]: 32.1% | viability, T/C [18]: 35.9% | viability, T/C [19]: 33.6% | viability, T/C [20]: 28.1% | viability, T/C [21]: 26.6% | viability, T/C [22]: 26.9% | viability, T/C [23]: 28.1% | viability, T/C [24]: 29.9% | viability, T/C [25]: 23.1% | viability, T/C [26]: 18.9% | viability, T/C [27]: 19.8% | viability, T/C [28]: 23.6% | viability, T/C [29]: 20.1% | viability, T/C [30]: 27.7%

COc1cc(C)[nH]c(=O)c1CN1CCc2c(Cl)cc(C(OC)C3COC3)c(Cl)c2C1=O (stereo not given) + CC[C@@]1(O)C(=O)OCc2c1cc1n(c2=O)Cc2cc3c(CN(C)C)c(O)ccc3nc2-1
IC50 (second compound 0.003 µM): > 10 µM | IC50 (second compound 0.00949 µM): > 10 µM | IC50 (second compound 0.03 µM): > 10 µM | IC50 (second compound 0.0949 µM): > 10 µM | IC50 (second compound 0.3 µM): 9.8 µM | viability, T/C [1]: 79.2% | viability, T/C [2]: 75.4% | viability, T/C [3]: 74.4% | viability, T/C [4]: 73.1% | viability, T/C [5]: 84.3% | viability, T/C [6]: 88% | viability, T/C [7]: 83.9% | viability, T/C [8]: 65.2% | viability, T/C [9]: 65.2% | viability, T/C [10]: 74% | viability, T/C [11]: 78.6% | viability, T/C [12]: 89.6% | viability, T/C [13]: 69% | viability, T/C [14]: 68.8% | viability, T/C [15]: 72.8% | viability, T/C [16]: 69.3% | viability, T/C [17]: 73.4% | viability, T/C [18]: 71.7% | viability, T/C [19]: 72% | viability, T/C [20]: 66.9% | viability, T/C [21]: 70.8% | viability, T/C [22]: 58.1% | viability, T/C [23]: 65.4% | viability, T/C [24]: 71.2% | viability, T/C [25]: 60.5% | viability, T/C [26]: 49.9% | viability, T/C [27]: 48.5% | viability, T/C [28]: 48.5% | viability, T/C [29]: 54.9% | viability, T/C [30]: 50.3%

Cc1cc(C)c(CNC(=O)c2cc(-c3ccc(CN4CCOCC4)cc3)cc3c2cnn3C2CCCC2)c(=O)[nH]1 + CC[C@@]1(O)C(=O)OCc2c1cc1n(c2=O)Cc2cc3c(CN(C)C)c(O)ccc3nc2-1
IC50 (second compound 0.003 µM): > 10 µM | IC50 (second compound 0.00949 µM): > 10 µM | IC50 (second compound 0.03 µM): > 10 µM | IC50 (second compound 0.0949 µM): > 10 µM | IC50 (second compound 0.3 µM): > 10 µM | viability, T/C [1]: 89% | viability, T/C [2]: 82.3% | viability, T/C [3]: 83.7% | viability, T/C [4]: 86.5% | viability, T/C [5]: 81.2% | viability, T/C [6]: 112% | viability, T/C [7]: 76.4% | viability, T/C [8]: 80.6% | viability, T/C [9]: 86.2% | viability, T/C [10]: 81.6% | viability, T/C [11]: 79.9% | viability, T/C [12]: 105% | viability, T/C [13]: 77.3% | viability, T/C [14]: 84.9% | viability, T/C [15]: 77.3% | viability, T/C [16]: 76.7% | viability, T/C [17]: 84.8% | viability, T/C [18]: 101% | viability, T/C [19]: 64.5% | viability, T/C [20]: 61.5% | viability, T/C [21]: 56.1% | viability, T/C [22]: 71.7% | viability, T/C [23]: 71.5% | viability, T/C [24]: 82.2% | viability, T/C [25]: 54.7% | viability, T/C [26]: 49.3% | viability, T/C [27]: 52.5% | viability, T/C [28]: 51.5% | viability, T/C [29]: 48.2% | viability, T/C [30]: 59.5%

[2H]c1nc(C)nc([2H])c1-c1cc(NC[C@@H](C)c2cccc3c(C(=O)NC)ccnc23)ncn1 + CC[C@@]1(O)C(=O)OCc2c1cc1n(c2=O)Cc2cc3c(CN(C)C)c(O)ccc3nc2-1
IC50 (second compound 0.003 µM): > 10 µM | IC50 (second compound 0.00949 µM): > 10 µM | IC50 (second compound 0.03 µM): > 10 µM | IC50 (second compound 0.0949 µM): > 10 µM | IC50 (second compound 0.3 µM): > 10 µM | viability, T/C [1]: 91.8% | viability, T/C [2]: 128% | viability, T/C [3]: 94.1% | viability, T/C [4]: 84.1% | viability, T/C [5]: 112% | viability, T/C [6]: 103% | viability, T/C [7]: 86.6% | viability, T/C [8]: 89.9% | viability, T/C [9]: 105% | viability, T/C [10]: 89.9% | viability, T/C [11]: 89.8% | viability, T/C [12]: 117% | viability, T/C [13]: 77.2% | viability, T/C [14]: 75.5% | viability, T/C [15]: 76.7% | viability, T/C [16]: 82.9% | viability, T/C [17]: 114% | viability, T/C [18]: 103% | viability, T/C [19]: 80.6% | viability, T/C [20]: 80.7% | viability, T/C [21]: 78.3% | viability, T/C [22]: 74.5% | viability, T/C [23]: 72.5% | viability, T/C [24]: 85.5% | viability, T/C [25]: 72.2% | viability, T/C [26]: 59% | viability, T/C [27]: 60.2% | viability, T/C [28]: 60.3% | viability, T/C [29]: 62.2% | viability, T/C [30]: 64.9%
